Test results: PubChem BioAssay (NCI)
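Growth conditions: 96-well plates. Treatment: test compound, 48 hours, 5 concentrations. Analysis: linear interpolation between bracketing concentrations; unreached endpoints set to highest concentration. TGI: concentration producing complete growth inhibition.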

Legend:
Experiment in all cases: NCI tumour cell line growth inhibition, 48 h
KM12 colon = tested on: KM12 colon
DU-145 prostate = tested on: DU-145 prostate
SN12C renal = tested on: SN12C renal
PC-3 prostate = tested on: PC-3 prostate
HOP-62 NSCLC = tested on: HOP-62 NSCLC
U251 CNS = tested on: U251 CNS
MDA-N = tested on: MDA-N
M14 melanoma = tested on: M14 melanoma
HCT-15 colon = tested on: HCT-15 colon
HCC-2998 colon = tested on: HCC-2998 colon
A498 renal = tested on: A498 renal
HT29 colon = tested on: HT29 colon
OVCAR-3 ovarian = tested on: OVCAR-3 ovarian

`COc1ccc2c(ccc3c(C(=O)NCCN(C)CCNC(=O)c4cn(C)c5c4ccc4cc(OC)ccc45)cn(C)c32)c1` showed a TGI (KM12 colon) of 3.02 µM, a TGI (DU-145 prostate) of 3.32 µM and a TGI (SN12C renal) of 2.82 µM. For the same compound, the TGI (PC-3 prostate) was 2.84 µM, the TGI (HOP-62 NSCLC) was 2.75 µM and the TGI (U251 CNS) was > 100 µM. For the same compound, the TGI (MDA-N) was 2.91 µM, the TGI (M14 melanoma) was 3 µM and the TGI (HCT-15 colon) was 2.52 µM. The TGI (HCC-2998 colon) was 2.79 µM, the TGI (A498 renal) was > 100 µM and the TGI (HT29 colon) was 2.7 µM. For the same compound, the TGI (OVCAR-3 ovarian) was 2.83 µM.
